This is an account of results in article PMC6694829, “Identification of Immunodominant HIV-1 Epitopes Presented by HLA-C*12:02, a Protective Allele, Using an Immunopeptidomics Approach” (Journal of Virology, 2019).

For one experiment, the target named is HLA-C*12:02 (Homo sapiens, UniProt P10321, A176E/A330V/C350S/D114A/D33Y/L171W/L180W/L218V/M285V/M309V/M331V/P208H/Q277E/Q291P/S123Y/S297R/S48A/T329A/T363A/V319A/V328M). The experiment is described as follows: HLA class I stabilization assay using RMA-S-C1202 cells. The format is cell-based. Particulars: for binding to HLA-C*12:02 at higher peptide concentration / binding to HLA-C*12:02 (stabilization of surface HLA expression, expression index): RMA-S-C1202 cells, result in words; for binding to HLA-C*12:02 at higher peptide concentration: peptide 100 to 300 μM; for binding to HLA-C*12:02 (stabilization of surface HLA expression, expression index): peptide 0.1 to 100 μM, pulsed 26°C 1 h then 37°C 3 h, DT-9 staining, flow cytometry; for affinities of binding to HLA-C*12:02, Nef-MY9 compared with Nef-MY10: data not shown, words. On the procedure:
The affinity of peptide binding to HLA-C*12:02 was examined using RMA-S-C1202 cells as previously described ([67]). Briefly, RMA-S-C1202 cells were cultured at 26°C for 16 h and then pulsed with peptides at 26°C for 1 h and subsequently incubated at 37°C for 3 h. Staining of cell surface HLA-C molecules was performed with DT-9, an HLA-C-specific monoclonal antibody (mAb) (a gift from Mary Carrington, NIH), and fluorescein isothiocyanate (FITC)-conjugated sheep anti-mouse IgG (Jackson ImmunoResearch). Staining data were acquired on a FACSCanto II instrument (BD Biosciences) and analyzed using FlowJo 10.5.3 software. Relative HLA expression was calculated as the ratio of the mean fluorescence intensity (MFI) of peptide-pulsed RMA-S-C1202 cells to that of control (non-peptide-pulsed) cells kept at 26°C.
For orientation: In flow cytometry, cells or beads pass a laser one at a time.

In experiment [1] the target is HLA-C*12:02 heavy chain and β2-microglobulin (Homo sapiens, UniProt P10321, A176E/A330V/C350S/D114A/D33Y/L171W/L180W/L218V/M285V/M309V/M331V/P208H/Q277E/Q291P/S123Y/S297R/S48A/T329A/T363A/V319A/V328M). In words: peptide/HLA refolding assay analyzed by FPLC. Particulars: for refolded peptide/HLA-C*12:02/β2m complex FPLC peak Height: heavy chain 20 μM, β2m 2 μM, peptide 85 μM, 48 h at 4°C, Superdex 75, Fig. 2d; for refolding with HLA-C*12:02 heavy chain and β2m: low-temperature refolding, FPLC, result in words. The format is binding. On the procedure:
Refolding of peptides with the HLA heavy chain and β2m was performed as previously described ([74]). Briefly, HLA-C*12:02 heavy chain and β2m were overexpressed in Escherichia coli as inclusion bodies and solubilized with 8 M urea. Before refolding, only β2m was refolded and purified with Superdex 75 pg 26/600 (GE Healthcare) chromatography, and the solubilized HLA heavy chain was treated with 6 M guanidine hydrochloride at 4°C overnight. The dissolved HLA heavy chain, purified monomer β2m, and peptide (final concentrations of 20 μM, 2 μM, and 85 μM, respectively) were diluted in 10 ml of refolding buffer (100 mM Tris-HCl [pH 8.0], 400 mM L-arginine, 2 mM EDTA-Na, 5 mM reduced L-glutathione, and 0.5 mM oxidized L-glutathione). After 48 h of slow stirring at 4°C, the peptide–HLA-C complex was then concentrated and purified by Superdex 75 pg 26/600 (GE Healthcare) chromatography.

Experiment [2] concerns PBMCs from HIV-1-infected HLA-C*12:02+ individuals. In words: ex vivo IFN-γ ELISpot assay. The format is cell-based, human. Particulars: for number of individuals with T cell response to the peptide: of 20 chronically HIV-1-infected HLA-C*12:02+ Japanese individuals, peptide 1 μM, positive >100 spots/10^6 PBMCs; for average magnitude of the T cell responses in individuals recognizing the epitope: ex vivo ELISpot, 20 HLA-C*12:02+ individuals screened, responders only. How it is done:
Peripheral blood mononuclear cells (PBMCs) were separated from whole blood and stored at −80°C. ELISpot assays were performed as previously described ([52]). […] The plates were then incubated for 16 h at 37°C and subsequently washed with PBS before the addition of biotinylated anti-IFN-γ mAb (Mabtech) at 1 μg/ml. After the plates had been incubated at room temperature for 90 min, they were washed with PBS and then incubated with streptavidin-conjugated alkaline phosphatase (Mabtech) for 60 min at room temperature. Following washes with PBS, individual cytokine-producing cells were visualized as dark spots after a 20-min reaction with 5-bromo-4-chloro-3-indolyl phosphate and nitroblue tetrazolium in the presence of an alkaline phosphatase-conjugated substrate (Bio-Rad). The spots were counted with an Eliphoto-Counter (Minerva Teck). The number of spots was calculated per 10^6 PBMCs. One hundred spots per 10^6 PBMCs were defined as a positive response, as described previously ([52]).

The test system of experiment [3] is CD8+ T cells. The experiment is described as follows: intracellular cytokine staining (ICS) assay with peptide-expanded bulk T cells. Format: cell-based, human. Particulars: peptide-expanded bulk T cells from responder KI-1407 (Env-RL9) or KI-1394 (Vif-DY9); IFN-γ ICS; words. How it is done: PBMCs from HIV-1-infected individuals were expanded by culture with each HIV-1 peptide for 2 weeks. .221-C1202 cells prepulsed with each HIV-1 peptide or .221-C1202 cells infected with HIV-1 NL4-3 were added to a 96-well plate together with bulk-cultured T cells, and the cells were incubated for 4 h at 37°C with brefeldin A (10 μg/ml). The cells were then stained with peridinin chlorophyll protein (PerCP)-labeled anti-CD3 mAb (BioLegend), phycoerythrin (PE)-labeled anti-CD4 mAb (BioLegend), and allophycocyanin (APC)-labeled anti-CD8 mAb (Dako) and subsequently fixed with 4% paraformaldehyde and incubated in permeabilization buffer (0.1% saponin–10% FBS–PBS). Thereafter, the cells were stained with FITC-labeled anti-IFN-γ mAb (BioLegend). Staining data were acquired on a FACSCanto II instrument (BD Biosciences) and analyzed using FlowJo 10.5.3 software.

Experiment [4] deals with CD8+ T cells. The conditions noted are these: comparison Nef-MY9 vs Nef-MY10; previous study; cited from earlier work. The source says:
In addition to Nef-VY9, which was previously reported as immunodominant HLA-C*12:02-restricted epitope MY9 ([52], [53]), the C-terminally extended Nef-VF10 peptide (VARELHPEYF) was also among the HIV-1 peptides identified here. […] (Nef-MY9) much more efficiently than […]Y (Nef-MY10) ([52]), despite the fact that the affinities of ...

Consider “KGALDLSHF [Nef-KF9, HIV-1 Nef 82–90 peptide; synthesized as …]”, for which the “binding to HLA-C*12:02 at higher peptide concentration” value at HLA-C*12:02 is reported as “did not exhibit detectable binding”. Besides, in experiment [1], the “refolded peptide/HLA-C*12:02/β2m complex FPLC peak Height” value is reported as 4.48 mAU; the “refolding with HLA-C*12:02 heavy chain and β2m” value (“refolding” below) is “shown to refold with HLA-C*12:02 heavy chain and β2m molecules”.
Turning to “DAKLVITTY [Vif-DY9, HIV-1 Vif 61–69 peptide …]”, the “number of individuals with T cell response to the peptide” value (“number of individuals” for short) in experiment [2] worked out at 1. For the same sequence, in the experiment with CD8+ T cells [3], the “HLA restriction of T cell response: recognition of peptide-prepulsed 721.221 cells expressing single HLA alleles” value was “higher-magnitude response to Vif-DY9-pulsed HLA-B*35:01-expressing cells than to Vif-DY9-pulsed HLA-C*12:02-expressing cells”.
“ILKEPVHGVYY [Pol-IY11, HIV-1 Pol 464–474 peptide […]]”: in experiment [2], the “average magnitude of the T cell responses in individuals recognizing the epitope” value was 130 SFC/10^6 PBMCs and the “number of individuals” value is reported as 5/20. The “binding to HLA-C*12:02 (stabilization of surface HLA expression, expression index)” value at HLA-C*12:02 is “exhibited affinity for HLA-C*12:02 molecules”. Also, in experiment [1], the “refolded peptide/HLA-C*12:02/β2m complex FPLC peak Height” value was found to be 4.88 mAU; the “refolding” value is “shown to refold with HLA-C*12:02 heavy chain and β2m molecules”.
In the case of “FLGKIWPSH [Gag-FH9, HIV-1 Gag 433–441 peptide …]”, the “binding to HLA-C*12:02 at higher peptide concentration” value on HLA-C*12:02 was “did not exhibit detectable binding”. In addition, in experiment [1], the “refolded peptide/HLA-C*12:02/β2m complex FPLC peak Height” value amounted to 2.27 mAU; the “refolding” value was “shown to refold with HLA-C*12:02 heavy chain and β2m molecules”.
On to “LGKIWPSH [Gag-LH8, HIV-1 Gag 434–441 peptide LGKIWPSH]”, for which, on HLA-C*12:02, the “binding to HLA-C*12:02 at higher peptide concentration” value is recorded as “did not exhibit detectable binding”. In experiment [1], the “refolded peptide/HLA-C*12:02/β2m complex FPLC peak Height” value stood at 6.41 mAU; the “refolding” value is “shown to refold with HLA-C*12:02 heavy chain and β2m molecules”.
For “MARELHPEYY [Nef-MY10, […], consensus version of Nef-VF10, reference compound]”, the “affinities of binding to HLA-C*12:02, Nef-MY9 compared with Nef-MY10” value at HLA-C*12:02 is “similar”.
MARELHPEY [Nef-MY9, reference compound]: in experiment [2], the “average magnitude of the T cell responses in individuals recognizing the epitope” value turned out to be 167 SFC/10^6 PBMCs and the “number of individuals” value was 5/20. Besides, the “recognition by PBMCs expanded in vitro with a peptide cocktail including MARELHPEYY” value in the experiment on CD8+ T cells [4] was “much more efficiently than […] (Nef-MY10)”. Further, on HLA-C*12:02, the “binding to HLA-C*12:02 (stabilization of surface HLA expression, expression index)” value is “exhibited affinity for HLA-C*12:02 molecules” and the “affinities of binding to HLA-C*12:02, Nef-MY9 compared with Nef-MY10” value is recorded as “similar”. In addition, the “refolding” value in experiment [1] was “complex of HLA-C*12:02, peptide, and β2m was generated”.
As to “MSQVTNSATIM [Gag-MM11, HIV-1 Gag 367–377 peptide eluted from HLA-C*12:02; tested as clade B consensus […]]”, at HLA-C*12:02, the “binding to HLA-C*12:02 at higher peptide concentration” value is on record as “did not exhibit detectable binding”. Further, in experiment [1], the “refolded peptide/HLA-C*12:02/β2m complex FPLC peak Height” value turned out to be 3.51 mAU; the “refolding” value is “shown to refold with HLA-C*12:02 heavy chain and β2m molecules”.
